Source: patent US20100267561A1, “HERBICIDAL PYRIDAZINONE DERIVATIVES” (priority 2007, published 2010)

Legend:
Experiment in all cases: Test B pre-/postemergence plant response
Assay type in all cases: in vivo
[1] = tested on: Russian thistle (Salsola iberica); details: Preemergence; for Russian Thistle plant response rating: scale 0 to 100
Summary of the method: (§1)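 Visual scoring from 0 (no effect) to 100 (complete control) against untreated controls was done 13 to 15 days after greenhouse treatment. Chemicals were formulated in a surfactant-containing non-phytotoxic solvent and applied to soil preemergence or to 1- to 4-leaf (2-18 cm) plants postemergence.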

[2] = tested on: blackgrass (Alopecurus myosuroides); details: for Blackgrass plant response rating: 8 g ai/ha
Summary of the method: as §1

[3] = tested on: catchweed bedstraw (Galium aparine); details: Preemergence; for Galium plant response rating: scale 0 to 100
Summary of the method: as §1

[4] = tested on: cocklebur (Xanthium strumarium); details: for Cocklebur plant response rating: 8 g ai/ha
Summary of the method: as §1

[5] = tested on: common ragweed (Ambrosia elation)
Summary of the method: as §1

corn (Zea mays) = tested on: corn (Zea mays)
Summary of the method: as §1

[6] = tested on: goosegrass (Eleusine indica)
Summary of the method: as §1

[7] = tested on: johnsongrass (Sorghum halepense)
Summary of the method: as §1

kochia (Kochia scoparia) = details: for Kochia plant response rating: postemergence, 0-100 scale; for Plant response rating, Kochia: Postemergence
Summary of the method: as §1

[8] = tested on: large crabgrass (Digitaria sanguinalis)
Summary of the method: as §1

[9] = tested on: velvetleaf (Abutilon theophrasti)
Summary of the method: as §1

wild oat (Avena fatua) = tested on: wild oat (Avena fatua)
Summary of the method: as §1

[10] = tested on: woolly cupgrass (Eriochloa villosa)
Summary of the method: as §1

[11] = tested on: yellow nutsedge (Cyperus esculentus)
Summary of the method: as §1

[12] = 31 g ai/ha, scale 0 to 100 (0 no effect, 100 complete control)
[13] = 62 g ai/ha, 0 to 100 scale, 0 no effect, 100 complete control
[14] = Postemergence, 16 g ai/ha, scale 0 to 100
[15] = Postemergence, 31 g ai/ha, scale 0 to 100
[16] = Postemergence, 62 g ai/ha, scale 0 to 100, 0 no effect, 100 complete control
[17] = Preemergence, 16 g ai/ha, scale 0 to 100 (0 no effect, 100 complete control)
[18] = Preemergence, 31 g ai/ha, scale 0 to 100 (0 no effect, 100 complete control)
[19] = Preemergence, 62 g ai/ha, 0 to 100 scale, 0 no effect, 100 complete control
[20] = 8 g ai/ha, postemergence, 0-100 scale
[21] = 16 g ai/ha, postemergence, 0-100 scale
[22] = Preemergence, 8 g ai/ha, scale 0 to 100
[23] = Preemergence, 16 g ai/ha, scale 0 to 100

Cc1cc(-c2ccc(Cl)cc2)nn1-c1c(OC(=S)N(C)C)cnn(C)c1=O [Compound 69]
95: Plant response rating, Kochia (kochia (Kochia scoparia); 31 g ai/ha, scale 0 to 100) | Plant response rating, Cupgrass, Woolly [10, 15]
70: Plant response rating, Blackgrass [2, 19] | Goosegrass plant response rating [6, 21] | Plant response rating, Johnsongrass [7, 15]
60: Goosegrass plant response rating [6, 20] | Johnsongrass plant response rating [7, 20]
35: Plant response rating, Blackgrass [2, 14] | Plant response rating, Blackgrass [2, 15]
98: Ragweed plant response rating [5, 23] | Plant response rating, Kochia (kochia (Kochia scoparia); 62 g ai/ha, scale 0 to 100, 0 no effect, 100 complete control) | Plant response rating, Crabgrass, Large [8, 15]
65: Johnsongrass plant response rating [7, 21]
55: Crabgrass, Large plant response rating [8, 20]
100: Plant response rating, Ragweed [5, 18] | Plant response rating, Ragweed [5, 19] | Plant response rating, Crabgrass, Large [8, 16] | Plant response rating, Cupgrass, Woolly [10, 16]
20: Plant response rating, Corn (corn (Zea mays); [16]) | Oat, Wild plant response rating (wild oat (Avena fatua); [20]) | Plant response rating, Oat, Wild (wild oat (Avena fatua); [18]) | Cupgrass, Woolly plant response rating [10, 20]
40: Plant response rating, Blackgrass [2, 18] | Oat, Wild plant response rating (wild oat (Avena fatua); [21]) | Plant response rating, Oat, Wild (wild oat (Avena fatua); [19])
75: Plant response rating, Goosegrass [6, 15] | Plant response rating, Johnsongrass [7, 16] | Plant response rating, Crabgrass, Large [8, 14]
10: Blackgrass plant response rating ([2]; postemergence, 0-100 scale)
0: Plant response rating, Russian Thistle [1, 12] | Plant response rating, Russian Thistle [1, 13] | Russian Thistle plant response rating ([1]; 8 g ai/ha) | Russian Thistle plant response rating ([1]; 16 g ai/ha) | Plant response rating, Blackgrass [2, 17] | Blackgrass plant response rating ([2]; Preemergence, scale 0 to 100) | Plant response rating, Galium [3, 12] | Plant response rating, Galium [3, 13] | Galium plant response rating ([3]; 8 g ai/ha) | Galium plant response rating ([3]; 16 g ai/ha) | Cocklebur plant response rating ([4]; postemergence, 0-100 scale) | Plant response rating, Cocklebur [4, 14] | Plant response rating, Cocklebur [4, 15] | Plant response rating, Cocklebur [4, 16] | Plant response rating, Cocklebur [4, 17] | Plant response rating, Cocklebur [4, 18] | Plant response rating, Cocklebur [4, 19] | Cocklebur plant response rating ([4]; Preemergence, scale 0 to 100) | Ragweed plant response rating [5, 20] | Ragweed plant response rating [5, 21] | Plant response rating, Ragweed [5, 15] | Plant response rating, Ragweed [5, 16] | Ragweed plant response rating [5, 22] | Corn plant response rating (corn (Zea mays); [20]) | Plant response rating, Corn (corn (Zea mays); [14]) | Plant response rating, Corn (corn (Zea mays); [15]) | Plant response rating, Corn (corn (Zea mays); [18]) | Plant response rating, Corn (corn (Zea mays); [19]) | Corn plant response rating (corn (Zea mays); [22]) | Corn plant response rating (corn (Zea mays); [23]) | Plant response rating, Goosegrass [6, 18] | Plant response rating, Goosegrass [6, 19] | Goosegrass plant response rating [6, 22] | Goosegrass plant response rating [6, 23] | Plant response rating, Johnsongrass [7, 18] | Plant response rating, Johnsongrass [7, 19] | Johnsongrass plant response rating [7, 22] | Johnsongrass plant response rating [7, 23] | Kochia plant response rating (kochia (Kochia scoparia); 8 g ai/ha) | Kochia plant response rating (kochia (Kochia scoparia); 16 g ai/ha) | Plant response rating, Crabgrass, Large [8, 18] | Plant response rating, Crabgrass, Large [8, 19] | Crabgrass, Large plant response rating [8, 22] | Crabgrass, Large plant response rating [8, 23] | Velvetleaf plant response rating [9, 20] | Velvetleaf plant response rating [9, 21] | Plant response rating, Velvetleaf [9, 15] | Plant response rating, Velvetleaf [9, 16] | Plant response rating, Velvetleaf [9, 18] | Plant response rating, Velvetleaf [9, 19] | Velvetleaf plant response rating [9, 22] | Velvetleaf plant response rating [9, 23] | Oat, Wild plant response rating (wild oat (Avena fatua); [22]) | Oat, Wild plant response rating (wild oat (Avena fatua); [23]) | Plant response rating, Cupgrass, Woolly [10, 18] | Cupgrass, Woolly plant response rating [10, 22] | Cupgrass, Woolly plant response rating [10, 23] | Nutsedge, Yellow plant response rating [11, 20] | Nutsedge, Yellow plant response rating [11, 21] | Plant response rating, Nutsedge, Yellow [11, 15] | Plant response rating, Nutsedge, Yellow [11, 16] | Plant response rating, Nutsedge, Yellow [11, 18] | Plant response rating, Nutsedge, Yellow [11, 19] | Nutsedge, Yellow plant response rating [11, 22] | Nutsedge, Yellow plant response rating [11, 23]
90: Plant response rating, Blackgrass [2, 16] | Plant response rating, Goosegrass [6, 16] | Plant response rating, Oat, Wild (wild oat (Avena fatua); [15]) | Plant response rating, Oat, Wild (wild oat (Avena fatua); [16]) | Plant response rating, Cupgrass, Woolly [10, 14]
85: Plant response rating, Cupgrass, Woolly [10, 19]
